Experimental data published in US12115209B2, “ROMO1-derived antimicrobial peptides including lysine substitution and variants thereof” (KOREA UNIVERSITY RESEARCH AND BUSINESS FOUNDATION, priority 2019, dated 2024).
No end group written: not given here.

Tests used:
Format in all cases: cell-based
[1] = system: mouse red blood cells
Protocol: Red blood cells were diluted with PBS, centrifuged 3 times at 900 g for 10 minutes, and washed. 100 μl of the diluted red blood cell solution (10% v/v PBS) was dispensed into each well of a 96-well microplate, and KU-5878, KU-5878-K4, KU-5878-K4-D, melittin, magainin 2 or daptomycin was added to each well which was then filled with PBS to 200 μl, followed by reaction by incubation at 37° C. for 1 hour. Then, the supernatant of the reaction solution was separated, and the absorbance at a wavelength of 550 nm was measured using a spectrophotometer. As control, PBS and 0.1% Triton X-100 (Triton X-100) solution were used.
Based on the results of measurement of the absorbance, the degree of red blood cell destruction was calculated according to Equation 1 below, and the results of the calculation are shown in FIG. 6. % The intact RBC=100(%)−[(absorbance of peptide-treated red blood cell solution−absorbance of PBS-treated red blood cell solution)/(absorbance of Triton X-100-treated red blood cell solution−absorbance of PBS-treated red blood cell solution)×100(%)] [Equation 1]

[2] = system: Klebsiella pneumoniae (ATCC 13883); conditions: ATCC 13883, 4 h
Protocol: (§1) Specifically, each type of bacteria was cultured in 3% (w/v) TSB (tryptic soy broth) liquid medium at 37° C. and 200 rpm for 4 hours, and then further cultured under the same conditions for 3 hours to a concentration of 5×10^6 CFU/ml. Strain solutions were prepared by diluting each of the further cultured strains with SP buffer to a final concentration of 2×10^5 CFU/ml.
(§2) Then, the KU-5878 peptide at varying concentrations (0 μg/ml to 300 μg/ml) was dispensed into each well of a 96-well microplate, and 100 μl (1×10^5 CFU/ml) of each of the prepared strain solutions was added thereto, mixed therewith, and allowed to react with the peptide in an incubator at 37° C. for 1 hour.
(§3) In addition, 10 μl of each reaction solution of the peptide and the strain was plated on the TS agar plate at a constant size, and incubated in an incubator at 37° C. for 18 hours, and then colony formation on the plate was checked. The minimum bactericidal concentration was defined as the minimum concentration of the peptide at which no colony was formed, and the experimental results are shown in Table 2 below.

[3] = system: Escherichia coli (ATCC 25922); conditions: ATCC 25922, 4 h
Protocol: as §1, §2, §3

[4] = system: Bacillus subtilis (ATCC 6633); conditions: ATCC 6633, 4 h
Protocol: as §1, §2, §3

[5] = system: Enterococcus faecium (ATCC 19434); conditions: ATCC 19434, 4 h
Protocol: as §1, §2, §3

[6] = system: Enterobacter aerogenes (ATCC 13048); conditions: ATCC 13048, 4 h
Protocol: as §1, §2, §3

[7] = system: Acinetobacter baumannii (ATCC 19606); conditions: ATCC 19606, 4 h
Protocol: as §1, §2, §3

[8] = system: Streptomyces sindenensis (ATCC 12392); conditions: ATCC 12392, 4 h
Protocol: as §1, §2, §3

[9] = system: Enterococcus faecalis (ATCC 19433); conditions: ATCC 19433, 4 h
Protocol: as §1, §2, §3

Sequence: KKMMKKGGKFGTFMAIGMGIR [KU-5878-K4]
- hemolysis of red blood cells [1]: little hemolysis
- MBC value [2]: 5 µg/mL
- MBC value [3]: 5 µg/mL
- MBC value [4]: 5 µg/mL
- MBC value [5]: 5 µg/mL
- MBC value [6]: 5 µg/mL
- MBC value [7]: 4 µg/mL
- MBC value [8]: 5 µg/mL
- MBC value [9]: 5 µg/mL
